{"source": "patent US20230265068A1", "about": "“TRANSIENT RECEPTOR POTENTIAL CANONICAL 3 INHIBITORS AND METHODS OF USE THEREOF” (University of Tennessee Research Foundation, priority 2020, published 2023)", "key": {"TRPC3": {"molecular_target": "T1, TRPC3 (Homo sapiens, UniProt Q13507)", "T1 sequence (Q13507 1-921)": "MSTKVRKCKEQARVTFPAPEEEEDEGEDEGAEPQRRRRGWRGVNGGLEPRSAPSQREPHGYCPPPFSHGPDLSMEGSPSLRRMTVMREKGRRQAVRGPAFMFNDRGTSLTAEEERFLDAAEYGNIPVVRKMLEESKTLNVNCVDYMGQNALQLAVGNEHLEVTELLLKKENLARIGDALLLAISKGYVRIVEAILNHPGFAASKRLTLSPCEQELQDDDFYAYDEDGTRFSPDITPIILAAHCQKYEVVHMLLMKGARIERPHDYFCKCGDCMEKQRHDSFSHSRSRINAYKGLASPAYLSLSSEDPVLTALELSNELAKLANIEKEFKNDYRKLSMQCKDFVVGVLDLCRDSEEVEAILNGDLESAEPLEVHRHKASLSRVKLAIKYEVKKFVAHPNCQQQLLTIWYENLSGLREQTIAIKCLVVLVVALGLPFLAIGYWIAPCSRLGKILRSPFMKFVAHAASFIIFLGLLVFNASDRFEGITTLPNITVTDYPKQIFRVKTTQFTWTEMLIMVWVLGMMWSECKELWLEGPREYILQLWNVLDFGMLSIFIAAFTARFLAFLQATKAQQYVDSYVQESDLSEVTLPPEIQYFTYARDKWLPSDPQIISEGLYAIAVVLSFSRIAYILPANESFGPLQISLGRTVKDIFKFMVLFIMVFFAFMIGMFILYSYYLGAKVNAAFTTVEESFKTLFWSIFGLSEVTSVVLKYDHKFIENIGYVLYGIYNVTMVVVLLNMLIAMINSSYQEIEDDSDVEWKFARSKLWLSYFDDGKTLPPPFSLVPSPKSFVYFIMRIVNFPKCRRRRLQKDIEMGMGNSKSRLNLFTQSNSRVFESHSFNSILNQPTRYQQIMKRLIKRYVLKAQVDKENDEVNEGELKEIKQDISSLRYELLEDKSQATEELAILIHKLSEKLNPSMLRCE", "experiment": "whole-cell patch clamp of HEK293 cells transfected with hTRPC3, currents activated by GSK1702934A", "assay_type": "cell-based", "set-up": "expressed in transfected cells; host or cells: HEK293 (CRL-1573), transient transfection, pMO vector", "outline": "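Whole-cell patch clamp on HEK293 cells co-transfected with hTRPC3 and GFP, recorded 18-24 h post-transfection. Bath held 140 mM NaCl, pH 7.4; pipette held 140 mM CsCl/5 mM EGTA, pH 7.2. Currents came from 1-s ramps −100 to 100 mV with GSK1702934A; compounds screened at 10 μM, IC50 from single-cell dose points.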"}, "rTRPV1": {"molecular_target": "T2, rTRPV1 (Rattus norvegicus, UniProt O35433)", "T2 construct": "expressed in transfected cells; host or cells: HEK293, transient transfection, pMO vector", "T2 sequence (O35433 whole entry)": "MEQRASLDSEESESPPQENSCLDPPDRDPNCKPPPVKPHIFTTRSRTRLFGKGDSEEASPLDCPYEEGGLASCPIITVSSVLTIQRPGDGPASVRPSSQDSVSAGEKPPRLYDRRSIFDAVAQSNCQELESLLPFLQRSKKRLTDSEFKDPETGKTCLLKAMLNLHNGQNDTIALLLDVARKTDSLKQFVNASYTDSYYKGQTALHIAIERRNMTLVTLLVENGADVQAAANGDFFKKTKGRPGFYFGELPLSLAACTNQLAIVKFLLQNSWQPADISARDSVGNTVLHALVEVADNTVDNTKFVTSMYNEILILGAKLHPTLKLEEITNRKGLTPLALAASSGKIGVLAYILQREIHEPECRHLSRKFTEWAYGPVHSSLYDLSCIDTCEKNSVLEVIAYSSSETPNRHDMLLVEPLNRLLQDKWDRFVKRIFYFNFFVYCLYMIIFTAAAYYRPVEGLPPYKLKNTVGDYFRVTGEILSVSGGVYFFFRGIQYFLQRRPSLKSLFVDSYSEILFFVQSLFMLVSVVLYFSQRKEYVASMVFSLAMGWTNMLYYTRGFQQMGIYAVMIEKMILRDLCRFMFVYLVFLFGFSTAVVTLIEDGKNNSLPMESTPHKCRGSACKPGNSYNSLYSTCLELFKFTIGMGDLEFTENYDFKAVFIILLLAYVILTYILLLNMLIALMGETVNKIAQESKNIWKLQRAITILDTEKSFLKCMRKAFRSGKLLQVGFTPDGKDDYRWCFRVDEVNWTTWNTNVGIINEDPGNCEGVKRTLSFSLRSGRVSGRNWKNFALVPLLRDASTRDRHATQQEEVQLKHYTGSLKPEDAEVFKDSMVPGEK", "experiment": "whole-cell patch clamp selectivity, HEK 293 cells overexpressing rTRPV1", "assay_type": "cell-based", "conditions": "HEK293, with agonist, solutions without Ca2+, read-out: % of the current of rTRPV1 inhibited", "procedure": "Human embryonic kidney 293 (HEK293; catalog number CRL-1573) cells were cultured in Dulbecco's modified Eagle's medium (Invitrogen) supplemented with 10% fetal bovine serum and 1% penicillin-streptomycin at 37° C. and 5% CO2. Constructs cloned in pMO (a pcDNA3-modified vector) were co-transfected with GFP-pMO, using Lipofectamine 2000 (Invitrogen) according to the manufacturer's instructions. Macroscopic currents in the whole-cell patch clamp configuration were recorded 18-24 h post-transfection. The extracellular solution contained 140 mM NaCl, 6 mM KCl, 2 mM MgCl2, 10 mM HEPES, and 10 mM glucose (pH 7.4). Pipettes were made of borosilicate glass (outer diameter, 1.5 mm; inner diameter, 1.10 mm; Sutter Instruments) and fire-polished with a resistance between 2.8 and 4.0 megaohms when filled with an intracellular solution that contained 140 mM CsCl, 5 mM EGTA, and 10 mM HEPES, pH 7.2. Currents were recorded with a Multiclamp 700B amplifier (Molecular Devices) using a 1-s ramp from −100 to 100 mV. […] Data were acquired with a sampling rate of 20 kHz, low-pass filtered (10 kHz), and analyzed offline using Clampfit v10.4.2.0 (Molecular Devices). […]"}, "[1]": {"experiment": "metabolic stability in human liver microsomes", "assay_type": "in vitro ADME", "conditions": "human, microsomes", "procedure": "The metabolic stability of compound 22 was tested prior to the next phase of in vivo study. […] The maximum tolerated dose (MTD) study was subsequently performed to investigate its in vivo toxicity (FIGS. 4A and 4B). The second major limitation of Pyr3 is its toxicity due to its alkylating tail moiety. While replacing only the fast-metabolizing head ester group in Pyr3 with a stable amide (compound 79) improved metabolic stability, a single IP injection of compound 79 at 200 mg/kg killed all mice within 24 h."}}, "note": "Like-named read-outs stand apart in the source and are kept apart here.", "data": [{"compound": "CCNC(=O)c1cnn(-c2ccc(-n3ccc(Cl)c(Cl)c3=O)cc2)c1C(F)(F)F", "note": "[Compound 22]", "values": [{"measurement": "inhibition at 10 µM", "setting": "TRPC3; 10 μM compound in presence of agonist GSK1702934A, HEK293 whole-cell peak current, read-out: hTRPC3 % Inhibition at 10 μM (mean ± SEM)", "value": "89 ± 1.14", "unit": "%"}, {"measurement": "IC50", "setting": "TRPC3; agonist GSK1702934A, HEK293 whole-cell patch clamp, read-out: hTRPC3 IC50 (μM, mean ± SEM)", "value": "0.37 ± 0.03", "unit": "µM"}, {"measurement": "IC50", "setting": "TRPC3; same value expressed in ng/ml, read-out: TRPC3 IC50 displayed in FIG. 6 (converted)", "value": 0.51, "unit": "µM"}, {"measurement": "IC50", "setting": "TRPC3; value shown in brain concentration figure, read-out: TRPC3 IC50 displayed in FIG. 6 (converted)", "value": 0.51, "unit": "µM"}, {"measurement": "inhibition at 10 µM", "setting": "rTRPV1", "value": "< 5", "unit": "%"}, {"measurement": "half-life", "setting": "[1]", "value": "> 4", "unit": "h"}]}]}
